Laboratory results published in PubChem BioAssay AID248 (DTP/NCI, 2004).
Where “and” joins values, the source holds several entries; their conditions need not be identical. Equal values may be shown once. Inconclusive results and toxic doses are left out. Cut-off read from the data, not from the text of the source: active = T/C of 150% or more; inactive = T/C below 125%.

System: L1210 leukemia ip in BDF1 mice, survival T/C
Test: NCI In Vivo Anticancer Drug Screen. Data for tumor model L1210 Leukemia (intraperitoneal) in B6D2F1 (BDF1) mice
Conditions: endpoint: mean survival time, higher = longer survival
Summary of the method: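 Tumor cells were implanted, animals were treated, and survival was followed. The result divides the treated measurement by the vehicle-control measurement.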

[1] = dose: 100.0 mg/kg/injection, schedule: Q04DX003 (ip), vehicle: saline
[2] = dose: 200.0 mg/kg/injection, schedule: Q04DX003 (ip), vehicle: saline
[3] = dose: 400.0 mg/kg/injection, schedule: Q04DX003 (ip), vehicle: saline
[4] = dose: 100.0 mg/kg/injection, schedule: Q01DX009 (ip), vehicle: Klucel (hydroxypropylcellulose) (HPC)
[5] = dose: 100.0 mg/kg/injection, schedule: Q04DX002 (ip), vehicle: Klucel (hydroxypropylcellulose) (HPC)
[6] = dose: 100.0 mg/kg/injection, schedule: Q04DX003 (ip), vehicle: Klucel (hydroxypropylcellulose) (HPC)
[7] = dose: 200.0 mg/kg/injection, schedule: Q01DX009 (ip), vehicle: Klucel (hydroxypropylcellulose) (HPC)
[8] = dose: 200.0 mg/kg/injection, schedule: Q04DX002 (ip), vehicle: Klucel (hydroxypropylcellulose) (HPC)
[9] = dose: 200.0 mg/kg/injection, schedule: Q04DX003 (ip), vehicle: Klucel (hydroxypropylcellulose) (HPC)
[10] = dose: 400.0 mg/kg/injection, schedule: Q01DX009 (ip), vehicle: Klucel (hydroxypropylcellulose) (HPC)
[11] = dose: 400.0 mg/kg/injection, schedule: Q04DX002 (ip), vehicle: Klucel (hydroxypropylcellulose) (HPC)
[12] = dose: 400.0 mg/kg/injection, schedule: Q04DX003 (ip), vehicle: Klucel (hydroxypropylcellulose) (HPC)
[13] = dose: 50.0 mg/kg/injection, schedule: Q01DX009 (ip), vehicle: Klucel (hydroxypropylcellulose) (HPC)
[14] = dose: 100.0 mg/kg/injection, schedule: Q01DX009 (ip), vehicle: saline with Tween-80
[15] = dose: 50.0 mg/kg/injection, schedule: Q04DX002 (ip), vehicle: Klucel (hydroxypropylcellulose) (HPC)
[16] = dose: 50.0 mg/kg/injection, schedule: Q01DX009 (ip), vehicle: saline with Tween-80
[17] = dose: 200.0 mg/kg/injection, schedule: Q01DX009 (ip), vehicle: saline with Tween-80
[18] = dose: 100.0 mg/kg/injection, schedule: Q01DX005 (ip), vehicle: saline
[19] = dose: 200.0 mg/kg/injection, schedule: Q01DX005 (ip), vehicle: saline
[20] = dose: 100.0 mg/kg/injection, schedule: Q04DX002 (ip), vehicle: saline
[21] = dose: 400.0 mg/kg/injection, schedule: Q04DX002 (ip), vehicle: saline
[22] = dose: 100.0 mg/kg/injection, schedule: Q01DX001 (ip), vehicle: saline
[23] = dose: 200.0 mg/kg/injection, schedule: Q01DX001 (ip), vehicle: saline
[24] = dose: 400.0 mg/kg/injection, schedule: Q01DX001 (ip), vehicle: saline
[25] = dose: 100.0 mg/kg/injection, schedule: Q04DX002 (ip), vehicle: saline with Tween-80
[26] = dose: 200.0 mg/kg/injection, schedule: Q04DX002 (ip), vehicle: saline with Tween-80
[27] = dose: 400.0 mg/kg/injection, schedule: Q04DX002 (ip), vehicle: saline with Tween-80

Measured: T/C

COC(=O)CNC(=O)C1CSC(C)(C)N1C=O (stereo not given)
inactive: [1] 104 % of control | [2] 101 % of control | [3] 98 % of control

CC1([CH2][Hg][Cl])Cc2ccccc2O1 (stereo not given)
inactive: dose: 6.25 mg/kg/injection, schedule: Q04DX003 (ip), vehicle: saline with Tween-80 96 % of control

COc1cc([N+](=O)[O-])ccc1NC(=O)OCC(Cl)(Cl)Cl
inactive: dose: 100.0 mg/kg/injection, schedule: Q01DX001 (ip), vehicle: Klucel (hydroxypropylcellulose) (HPC) 98 % of control | [4] 93 % of control and 92 % of control | [5] 95 % of control and 102 % of control | [6] 99 % of control | dose: 200.0 mg/kg/injection, schedule: Q01DX001 (ip), vehicle: Klucel (hydroxypropylcellulose) (HPC) 100 % of control | [7] 103 % of control and 92 % of control | [8] 98 % of control and 111 % of control | [9] 94 % of control | dose: 400.0 mg/kg/injection, schedule: Q01DX001 (ip), vehicle: Klucel (hydroxypropylcellulose) (HPC) 96 % of control | [10] 109 % of control and 88 % of control | [11] 95 % of control and 98 % of control | [12] 105 % of control

CS(=O)(=O)CCS(=O)(=O)c1cccs1
inactive: [13] 103 % of control | [4] 102 % of control | [6] 110 % of control | [9] 112 % of control | [12] 111 % of control

CCCC(C(=O)O)C1=CCCC1 (stereo not given)
inactive: [14] 88 % of control | [1] 98 % of control | [2] 103 % of control | [3] 101 % of control

CN(C)C(=O)C1C2CC3OC(=O)C1C3C2 (stereo not given)
inactive: [1] 100 % of control and 104 % of control | [2] 94 % of control and 108 % of control | [3] 100 % of control and 104 % of control

CN(C(=O)c1ccccc1C(=O)c1n[nH]c2ccccc12)c1ccccc1
inactive: [15] 104 % of control | [5] 97 % of control | [8] 104 % of control

Cc1c(Cl)cccc1NC(=O)Oc1ccc(Cl)cc1Cl
inactive: [16] 94 % of control | [14] 103 % of control | [17] 106 % of control

O=C(Cc1c[nH]c2ccccc12)N=Nc1c(O)[nH]c2ccccc12
inactive: dose: 100.0 mg/kg/injection, schedule: Q01DX001 (ip), vehicle: other 102 % of control | dose: 200.0 mg/kg/injection, schedule: Q01DX001 (ip), vehicle: other 101 % of control | dose: 400.0 mg/kg/injection, schedule: Q01DX001 (ip), vehicle: other 93 % of control

O=C(Nc1ccccc1[N+](=O)[O-])c1ccccc1
inactive: [14] 111 % of control | [17] 106 % of control | dose: 400.0 mg/kg/injection, schedule: Q01DX009 (ip), vehicle: saline with Tween-80 106 % of control

CC1N=C(N)NC(=O)C1c1ccc(Cl)cc1 (stereo not given)
inactive: [14] 103 % of control | [17] 100 % of control

CCSC(=O)C1OC(n2cnc3c(N)ncnc32)C2OC(C)(C)OC12 (stereo not given)
inactive: [18] 100 % of control | [19] 102 % of control

COc1ccc(-n2cccc2)cc1
inactive: dose: 100.0 mg/kg/injection, schedule: Q01DX001 (ip), vehicle: steriod suspending solution 95 % of control | [5] 90 % of control | dose: 200.0 mg/kg/injection, schedule: Q01DX001 (ip), vehicle: steriod suspending solution 100 % of control | [8] 90 % of control | dose: 400.0 mg/kg/injection, schedule: Q01DX001 (ip), vehicle: steriod suspending solution 106 % of control | [11] 94 % of control

CC1OC(=O)N(CCc2ccncc2)C1=O (stereo not given)
inactive: [20] 93 % of control | dose: 200.0 mg/kg/injection, schedule: Q04DX002 (ip), vehicle: saline 93 % of control | [21] 97 % of control

CCOC(=O)NC(=O)C1C2CC3OC(=O)C1C3C2 (stereo not given)
inactive: [1] 102 % of control | [2] 102 % of control | [3] 98 % of control

O=C(O)C(Br)C(Br)c1ccc([N+](=O)[O-])cc1 (stereo not given)
inactive: dose: 100.0 mg/kg/injection, schedule: Q04DX002 (ip), vehicle: gum acacia 103 % of control | dose: 200.0 mg/kg/injection, schedule: Q04DX002 (ip), vehicle: gum acacia 107 % of control | dose: 400.0 mg/kg/injection, schedule: Q04DX002 (ip), vehicle: gum acacia 90 % of control

CN(C)n1cc(C#N)c(=O)[nH]c1=O
inactive: [13] 90 % of control | [4] 90 % of control | [6] 100 % of control | [7] 100 % of control | [9] 97 % of control

O=C(O)CCC(=O)c1ccc(C2CCCC2)c2ccccc12
inactive: dose: 100.0 mg/kg/injection, schedule: Q01DX001 (ip), vehicle: carboxymethylcellulose (CMC) 91 % of control | dose: 200.0 mg/kg/injection, schedule: Q01DX001 (ip), vehicle: carboxymethylcellulose (CMC) 93 % of control | dose: 400.0 mg/kg/injection, schedule: Q01DX001 (ip), vehicle: carboxymethylcellulose (CMC) 89 % of control

CCC(CO)C(C)C (stereo not given)
inactive: [16] 107 % of control | [14] 102 % of control | [17] 93 % of control

CCCCC(=O)N/N=C/c1ccc(Cl)cc1Cl
inactive: [22] 91 % of control

OC1c2ccccc2CC1N1CCCCC1 (stereo not given)
inactive: dose: 100.0 mg/kg/injection, schedule: Q01DX001 (ip), vehicle: saline with Tween-80 97 % of control

CC(=O)OCC1OC(SSC2OC(COC(C)=O)C(OC(C)=O)C(OC(C)=O)C2OC(C)=O)C(OC(C)=O)C(OC(C)=O)C1OC(C)=O (stereo not given)
inactive: [22] 93 % of control | [23] 95 % of control | [24] 89 % of control

CCOC(=O)C(C)Oc1ccccc1[N+](=O)[O-] (stereo not given)
inactive: [4] 93 % of control | [7] 102 % of control | [10] 102 % of control

COc1ccc(COC2C(CO)OC(n3ccc(N)nc3=O)C2O)cc1 (stereo not given)
inactive: [18] 100 % of control | [19] 94 % of control

COc1cc(OC)cc(-n2cccc2)c1
inactive: [25] 90 % of control | [26] 97 % of control | [27] 87 % of control

Cc1csc2ccc([N+](=O)[O-])cc12
inactive: [22] 106 % of control | [23] 101 % of control | [24] 101 % of control

Brc1ccc2oc3ccccc3c2c1
inactive: [15] 92 % of control | [5] 93 % of control | [20] 104 % of control | [8] 96 % of control | [11] 100 % of control | [21] 93 % of control

CCC[CH2][Sn](=[O])[OH]
inactive: [25] 91 % of control | [26] 91 % of control | [27] 94 % of control
